Source: patent publication US20120190703A1, “SALTS OF 13A-(S)DESOXYTYLOPHORININE, PREPARATION METHODS AND PHARMACEUTICAL COMPOSITIONS AND USES THEREOF” (priority 2009, published 2012)
Where “and” joins values, the source holds several entries; their conditions need not be identical. Equal values may be shown once. Read-outs that look alike come from different tables or passages of the source. Marks after values point to notes of the source that are not given here.

Key:
[1] = Plasma pharmacokinetics after oral administration in mice
Method: To determine the pharmacokinetic characters of 13a-(S)-deoxytylophorinine and its salts, the studies about plasma pharmacokinetics and the character of distribution in brain were pursued.
(§1) Male ICR mice. Body weight 18˜22 g.
(+)-13a-(S)-deoxytylophorinine Tartrate, (+)-13a-(S)-deoxytylophorinine Maleate, (+)-13a-(S)-deoxytylophorinine Citrate. All were dissolved in distilled water as 0.6 mg/ml solution before experiment progressed.
72 mice were divided to 3 groups with 24 animals per group, fasting for 16 h and drinking water freely. […] Plasma was isolated by centrifugalization. After the salts were administered orally, the brain tissues of mice were collected at 5 min, 15 min, 2 h time points. 25% tissue homogenate was prepared with normal saline addition. 200 μL of homogenate and plasma were added isovolumic MeCN to precipitate protein. 5 μL of clear supernatant was analyzed by LC/MS/MS.
(+)-13a-(S)-deoxytylophorinine was dissolved in DMSO and then diluted with MeOH with concentration 10, 50, 100, 500, 1000 and 2500 ng/ml respectively. 10 μl of standard solutions of (+)-13a-(S)-deoxytylophorinine with different concentration above were added to 200 μl of blank plasma sequently to adjust the concentration to 0.5, 2.5, 5, 25, 50, 125 ng/ml respectively. MeCN was added to the solution to precipitate protein, and 5 μl of result clear supernatant was analyzed with LC/MS/MS. Linear regression was ran with the peak area of (+)-13a-(S)-deoxytylophorinine as ordinate and the concentrations as abscissa.

Solubility in water = assay type: physicochemical
H22 tumor-bearing mice = details: intragastric once daily
Excerpt: To determine the pharmacodynamic characters of 13a-(S)-deoxytylophorinine and its salts, the impact of these compounds to the tumor growth in H22 tumor-bearing mice was surveyed.
Male Kunming mice were obtained from the Laboratory Animal Center, Academy of Military Medical Science. Body weight 18˜22 g. 6 animals per group, totally 10 groups, 60 animals.
(+)-13a-(S)-deoxytylophorinine, (+)-13a-(S)-deoxytylophorinine Tartrate, (+)-13a-(S)-deoxytylophorinine Maleate, (+)-13a-(S)-deoxytylophorinine Citrate, Cytoxane (CTX) as positive control.
(+)-13a-(S)-deoxytylophorinine was administered at high dose (5 mg/kg) and low dose (2.5 mg/kg). Three (+)-13a-(S)-deoxytylophorinine salts were administered at high dose and low dose as equal moles with their prototype (Tartrate: 7.05 mg/kg, 3.53 mg/kg; Malate: 6.60 mg/kg, 3.30 mg/kg; Citrate: 7.90 mg/kg, 3.95 mg/kg).
Animals were reared in SPF grade circumstance to be observed for 24 h. The tumor cells liquid which resuscitated in abdominal cavity of KM mice was diluted with aseptic normal saline at 1:3 ratio. The resulting liquid was inoculated subcutaneously at forelimb with 0.2 mL every animal. After the injection over, the animals were divided to […] with 6 animals per group.
Four experimental samples were intragastric administered once daily 24 h after inoculation. The positive control CTX was intraperitoneal injected once daily. The animal body weight was recorded every day.

[2] = Drug distribution in brain tissue after oral administration in mice; assay type: in vivo, ICR mice; details: for Brain contents of (+)-13a-(S)-deoxytylophorinine (ng/ml), Mean ± SD / Brain contents of (+)-13a-(S)-deoxytylophorinine (ng/ml), individual animals 1-3: 6 mg/kg oral
Method: as §1
Plasma was isolated by centrifugalization. […] 25% tissue homogenate was prepared with normal saline addition.
The drug concentration-time data in brain tissue after administered orally of (+)-13a-(S)-deoxytylophorinine tartrate, maleate and citrate were represented in Table 8˜10 and FIG. 6˜8. […] (+)-13a-(S)-deoxytylophorinine could be detected in 5 min. The peak concentration was reached after 15 min, and the compound still can be detected after 2 h after administration.

[3] = 6 mg/kg oral, mice, Time (min) 0.08
[4] = 6 mg/kg oral, mice, Time (min) 0.25
[5] = 6 mg/kg oral, mice, Time (min) 0.5
[6] = 6 mg/kg oral, mice, Time (min) 1
[7] = 6 mg/kg oral, mice, Time (min) 2
[8] = 6 mg/kg oral, mice, Time (min) 3
[9] = 6 mg/kg oral, mice, Time (min) 4
[10] = 6 mg/kg oral, mice, Time (min) 6
[11] = male, ICR, mouse, plasma, po, 6 mg/kg
[12] = high dose × 7 d, equal moles: prototype 5.0, tartrate 7.05, maleate 6.60, citrate 7.90 mg/kg
[13] = low dose × 7 d, equal moles: prototype 2.5, tartrate 3.53, maleate 3.30, citrate 3.95 mg/kg

COc1ccc2c3c(c4cc(OC)c(OC)cc4c2c1)CN1CCC[C@H]1C3.O=C(O)/C=C\C(=O)O [Maleate, (+)-13a-(S)-deoxytylophorinine Maleate]
Peak concentration in blood ([1]; 6 mg/kg oral, mice): 35.4 ± 3.5 ng/mL
Time of peak concentration in blood ([1]; 6 mg/kg oral, mice): 5 min
t½z ([1]; 6 mg/kg oral, mice, plasma, non-compartment model): 1.72 h
Blood concentration of (+)-13a-(S)-deoxytylophorinine (ng/ml), Mean ± SD [1, 3]: 35.4 ± 3.5 ng/mL
Blood concentration of (+)-13a-(S)-deoxytylophorinine (ng/ml), individual animals 1-3 [1, 3]: 33.0 ng/mL and 37.9 ng/mL
Blood concentration of (+)-13a-(S)-deoxytylophorinine (ng/ml), Mean ± SD [1, 4]: 27.4 ± 6.2 ng/mL
Blood concentration of (+)-13a-(S)-deoxytylophorinine (ng/ml), individual animals 1-3 [1, 4]: 24.2 ng/mL and 23.5 ng/mL and 34.6 ng/mL
Blood concentration of (+)-13a-(S)-deoxytylophorinine (ng/ml), Mean ± SD [1, 5]: 12.2 ± 4.0 ng/mL
Blood concentration of (+)-13a-(S)-deoxytylophorinine (ng/ml), individual animals 1-3 [1, 5]: 15.7 ng/mL and 13.0 ng/mL and 7.9 ng/mL
Blood concentration of (+)-13a-(S)-deoxytylophorinine (ng/ml), Mean ± SD [1, 6]: 9.2 ± 3.2 ng/mL
Blood concentration of (+)-13a-(S)-deoxytylophorinine (ng/ml), individual animals 1-3 [1, 6]: 12.5 ng/mL and 6.2 ng/mL and 8.7 ng/mL
Blood concentration of (+)-13a-(S)-deoxytylophorinine (ng/ml), Mean ± SD [1, 7]: 11.2 ± 8.0 ng/mL
Blood concentration of (+)-13a-(S)-deoxytylophorinine (ng/ml), individual animals 1-3 [1, 7]: 2.0 ng/mL and 15.9 ng/mL and 15.7 ng/mL
Blood concentration of (+)-13a-(S)-deoxytylophorinine (ng/ml), Mean ± SD [1, 8]: 8.6 ± 6.6 ng/mL
Blood concentration of (+)-13a-(S)-deoxytylophorinine (ng/ml), individual animals 1-3 [1, 8]: 3.6 ng/mL and 16.1 ng/mL and 6.3 ng/mL
Blood concentration of (+)-13a-(S)-deoxytylophorinine (ng/ml), Mean ± SD [1, 9]: 2.8 ± 0.9 ng/mL
Blood concentration of (+)-13a-(S)-deoxytylophorinine (ng/ml), individual animals 1-3 [1, 9]: 2.6 ng/mL and 2.0 ng/mL and 3.8 ng/mL
Blood concentration of (+)-13a-(S)-deoxytylophorinine (ng/ml), Mean ± SD [1, 10]: 1.2 ± 1.0 ng/mL
Blood concentration of (+)-13a-(S)-deoxytylophorinine (ng/ml), individual animals 1-3 [1, 10]: 2.3 ng/mL and 1.0 ng/mL and 0.4 ng/mL
AUC(0-inf) [1, 11]: 49.9 ng·h/mL
AUC(0-t) [1, 11]: 46.9 ng·h/mL
Cmax [1, 11]: 35.5 ng/mL
MRT inf [1, 11]: 2.18 h
MRT last [1, 11]: 1.78 h
Tmax [1, 11]: 4.8 min
Solubility in water (words) (Solubility in water): soluble in water
solubility (Solubility in water; water): 44 mg/mL
Animal No. (Initial/Final) (H22 tumor-bearing mice; [12]): 6/4
Body Weight(g) Final (H22 tumor-bearing mice; [12]): 13.62 ± 2.08 g
Body Weight(g) Initial (H22 tumor-bearing mice; [12]): 21.17 ± 0.98 g⁻¹
Inhibition (%) (H22 tumor-bearing mice; [12]): 73.58** %
Tumor Weight (g, mean ± SD) (H22 tumor-bearing mice; [12]): 0.30 ± 0.24 g
Animal No. (Initial/Final) (H22 tumor-bearing mice; [13]): 6/6
Body Weight(g) Final (H22 tumor-bearing mice; [13]): 23.79 ± 0.52 g
Body Weight(g) Initial (H22 tumor-bearing mice; [13]): 22.50 ± 1.05 g⁻¹
Inhibition (%) (H22 tumor-bearing mice; [13]): 45.56%
Tumor Weight (g, mean ± SD) (H22 tumor-bearing mice; [13]): 0.62 ± 0.31 g
Brain contents of (+)-13a-(S)-deoxytylophorinine (ng/ml), Mean ± SD ([2]; Time (min) 5): 150.2 ± 84.8 ng/mL
Brain contents of (+)-13a-(S)-deoxytylophorinine (ng/ml), individual animals 1-3 ([2]; Time (min) 5): 245.2 ng/mL and 82.5 ng/mL and 122.7 ng/mL
Brain contents of (+)-13a-(S)-deoxytylophorinine (ng/ml), Mean ± SD ([2]; Time (min) 15): 150.3 ± 49.8 ng/mL
Brain contents of (+)-13a-(S)-deoxytylophorinine (ng/ml), individual animals 1-3 ([2]; Time (min) 15): 159.3 ng/mL and 96.6 ng/mL and 194.9 ng/mL
Brain contents of (+)-13a-(S)-deoxytylophorinine (ng/ml), Mean ± SD ([2]; Time (min) 120): 108.8 ± 74.7 ng/mL
Brain contents of (+)-13a-(S)-deoxytylophorinine (ng/ml), individual animals 1-3 ([2]; Time (min) 120): 27.2 ng/mL and 173.7 ng/mL and 125.4 ng/mL
Drug contents in brain compared with prototype ([2]; oral, 3 time points): higher than their prototype
